Test results reported in patent US20240425490A1, “SULFAMIDE RIBONUCLEOTIDE REDUCTASE (RNR) INHIBITORS AND USES THEREOF” (Boundless Bio, Inc., priority 2021, published 2024).

Biological target: T1, RNR (RNR1:RNR2 1:1) (Homo sapiens, UniProt P23921)
T1 sequence (P23921 1-792): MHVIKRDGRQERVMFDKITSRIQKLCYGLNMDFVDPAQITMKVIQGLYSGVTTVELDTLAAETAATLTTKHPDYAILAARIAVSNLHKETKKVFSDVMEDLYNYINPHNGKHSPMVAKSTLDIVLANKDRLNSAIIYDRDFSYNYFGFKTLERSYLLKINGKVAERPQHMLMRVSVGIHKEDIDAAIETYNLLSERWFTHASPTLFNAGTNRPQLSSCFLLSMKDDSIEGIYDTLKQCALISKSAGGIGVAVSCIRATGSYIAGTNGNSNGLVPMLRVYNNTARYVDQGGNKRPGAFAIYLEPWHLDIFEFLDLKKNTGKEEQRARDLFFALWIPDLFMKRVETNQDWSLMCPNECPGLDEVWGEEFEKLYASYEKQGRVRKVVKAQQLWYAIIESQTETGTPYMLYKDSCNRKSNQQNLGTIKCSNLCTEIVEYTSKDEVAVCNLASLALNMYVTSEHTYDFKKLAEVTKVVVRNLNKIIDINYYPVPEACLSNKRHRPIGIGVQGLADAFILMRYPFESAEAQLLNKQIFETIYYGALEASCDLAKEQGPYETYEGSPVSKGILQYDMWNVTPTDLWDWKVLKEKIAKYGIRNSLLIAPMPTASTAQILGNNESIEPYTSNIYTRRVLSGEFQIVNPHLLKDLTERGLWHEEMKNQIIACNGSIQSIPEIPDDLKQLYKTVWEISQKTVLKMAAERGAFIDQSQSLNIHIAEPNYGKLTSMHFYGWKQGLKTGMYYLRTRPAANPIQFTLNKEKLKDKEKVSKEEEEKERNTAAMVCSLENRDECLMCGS
Assay: RNR enzyme activity, rapid-fire mass spectrometry (RFMS) assay
Format: biochemical
Conditions: RNR 50 nM, CDP 5 μM, ATP 1 mM, 37° C., 45 min, compounds screened up to 50 μM, read-out: RF/MS IC50
In short: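 Human RNR1:RNR2 (1:1, 50 nM) pre-incubated 15 min at room temperature with compound, then reacted with 5 μM CDP and 1 mM ATP, no NADPH, for 45 min at 37 °C. Stopped with 6% HCOOH; turnover read by rapid-fire mass spectrometry; Triapine and hydroxyurea as reference compounds.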

Row | Structure (SMILES) | IC50 [nM]
1 | Cc1ccc(F)c([C@@H](C)[C@H](NS(=O)(=O)N2CCCC(C)(C)C2)c2n[nH]c(=O)o2)c1C [Example 117, N-((1S,2R)-2-(6-fluoro-2,3-dimethylphenyl)-1-(5-oxo-4,5-dihydro-1,3,4-oxadiazol-2-yl)propyl)-3,3-dimethylpiperidine-1-sulfonamide] | 1000 to 10000
2 | CCN(CC1CC1)S(=O)(=O)N[C@H](c1n[nH]c(=O)o1)[C@H](C)c1c(F)ccc(C)c1C [Example 118] | 1000 to 10000
3 | Cc1ccc(F)c([C@H](C)[C@H](NS(=O)(=O)N2CCCC(C)(C)C2)c2n[nH]c(=O)o2)c1C [Example 119, N-((1S,2S)-2-(6-fluoro-2,3-dimethylphenyl)-1-(5-oxo-4,5-dihydro-1,3,4-oxadiazol-2-yl)propyl)-3,3-dimethylpiperidine-1-sulfonamide] | 1000 to 10000
4 | CCN(CC1CC1)S(=O)(=O)N[C@H](c1n[nH]c(=O)o1)[C@@H](C)c1c(F)ccc(C)c1C [Example 120] | 10000 to 100000
5 | Cc1ccc(F)c([C@@H](C)[C@H](NS(=O)(=O)N2CC(C)CC(C)C2)c2n[nH]c(=O)o2)c1C (stereo partly drawn) [Example 121, N-((1S,2R)-2-(6-fluoro-2,3-dimethylphenyl)-1-(5-oxo-4,5-dihydro-1,3,4-oxadiazol-2-yl)propyl)-3,5-dimethylpiperidine-1-sulfonamide] | 1000 to 10000
6 | Cc1ccc(F)c([C@H](C)[C@H](NS(=O)(=O)N2CC(C)CC(C)C2)c2n[nH]c(=O)o2)c1C (stereo partly drawn) [Example 122, N-((1S,2S)-2-(6-fluoro-2,3-dimethylphenyl)-1-(5-oxo-4,5-dihydro-1,3,4-oxadiazol-2-yl)propyl)-3,5-dimethylpiperidine-1-sulfonamide] | 1000 to 10000
7 | Cc1ccc(F)c(C(C)[C@H](NS(=O)(=O)N2CCC(C#N)CC2)c2n[nH]c(=O)o2)c1C (stereo partly drawn) [Example 123, 4-cyano-N-((1S)-2-(6-fluoro-2,3-dimethylphenyl)-1-(5-oxo-4,5-dihydro-1,3,4-oxadiazol-2-yl)propyl)piperidine-1-sulfonamide] | 100 to 1000
8 | Cc1ccc(F)c(C(C)[C@H](NS(=O)(=O)N2CCN(CC(F)F)CC2)c2n[nH]c(=O)o2)c1C (stereo partly drawn) [Example 124, 4-(2,2-difluoroethyl)-N-((1S)-2-(6-fluoro-2,3-dimethylphenyl)-1-(5-oxo-4,5-dihydro-1,3,4-oxadiazol-2-yl)propyl)piperazine-1-sulfonamide] | 1000 to 10000
9 | COC1CCN(S(=O)(=O)N[C@H](c2n[nH]c(=O)o2)[C@H](C)c2c(F)ccc(C)c2C)CC1 [Example 125, N-((1S,2R)-2-(6-fluoro-2,3-dimethylphenyl)-1-(5-oxo-4,5-dihydro-1,3,4-oxadiazol-2-yl)propyl)-4-methoxypiperidine-1-sulfonamide] | 100 to 1000
10 | COC1CCN(S(=O)(=O)N[C@H](c2n[nH]c(=O)o2)[C@@H](C)c2c(F)ccc(C)c2C)CC1 [Example 126, N-((1S,2S)-2-(6-fluoro-2,3-dimethylphenyl)-1-(5-oxo-4,5-dihydro-1,3,4-oxadiazol-2-yl)propyl)-4-methoxypiperidine-1-sulfonamide] | 1000 to 10000
11 | COCC1CCN(S(=O)(=O)N[C@H](c2n[nH]c(=O)o2)[C@H](C)c2c(F)ccc(C)c2C)CC1 [Example 127, N-((1S,2R)-2-(6-fluoro-2,3-dimethylphenyl)-1-(5-oxo-4,5-dihydro-1,3,4-oxadiazol-2-yl)propyl)-4-(methoxymethyl)piperidine-1-sulfonamide] | 100 to 1000
12 | COCC1CCN(S(=O)(=O)N[C@H](c2n[nH]c(=O)o2)[C@@H](C)c2c(F)ccc(C)c2C)CC1 [Example 128, N-((1S,2S)-2-(6-fluoro-2,3-dimethylphenyl)-1-(5-oxo-4,5-dihydro-1,3,4-oxadiazol-2-yl)propyl)-4-(methoxymethyl)piperidine-1-sulfonamide] | 1000 to 10000
13 | COCC1CCCN(S(=O)(=O)N[C@H](c2n[nH]c(=O)o2)[C@H](C)c2c(F)ccc(C)c2C)C1 (stereo partly drawn) [Example 129, N-((1S,2R)-2-(6-fluoro-2,3-dimethylphenyl)-1-(5-oxo-4,5-dihydro-1,3,4-oxadiazol-2-yl)propyl)-3-(methoxymethyl)piperidine-1-sulfonamide] | 1000 to 10000
14 | COCC1CCCN(S(=O)(=O)N[C@H](c2n[nH]c(=O)o2)[C@@H](C)c2c(F)ccc(C)c2C)C1 (stereo partly drawn) [Example 130, N-((1S,2S)-2-(6-fluoro-2,3-dimethylphenyl)-1-(5-oxo-4,5-dihydro-1,3,4-oxadiazol-2-yl)propyl)-3-(methoxymethyl)piperidine-1-sulfonamide] | 1000 to 10000
15 | Cc1ccc(F)c([C@@H](C)[C@H](NS(=O)(=O)N2CCC(C(C)(C)C)CC2)c2n[nH]c(=O)o2)c1C [Example 131, 4-(tert-butyl)-N-((1S,2R)-2-(6-fluoro-2,3-dimethylphenyl)-1-(5-oxo-4,5-dihydro-1,3,4-oxadiazol-2-yl)propyl)piperidine-1-sulfonamide] | 100 to 1000
16 | Cc1ccc(F)c([C@H](C)[C@H](NS(=O)(=O)N2CCC(C(C)(C)C)CC2)c2n[nH]c(=O)o2)c1C [Example 132, 4-(tert-butyl)-N-((1S,2S)-2-(6-fluoro-2,3-dimethylphenyl)-1-(5-oxo-4,5-dihydro-1,3,4-oxadiazol-2-yl)propyl)piperidine-1-sulfonamide] | 1000 to 10000
17 | Cc1ccc(F)c([C@@H](C)[C@H](NS(=O)(=O)N2CCC3(CC2)OCCO3)c2n[nH]c(=O)o2)c1C [Example 133, N-((1S,2R)-2-(6-fluoro-2,3-dimethylphenyl)-1-(5-oxo-4,5-dihydro-1,3,4-oxadiazol-2-yl)propyl)-1,4-dioxa-8-azaspiro[4.5]decane-8-sulfonamide] | 10000 to 100000
18 | Cc1ccc(F)c([C@H](C)[C@H](NS(=O)(=O)N2CCC3(CC2)OCCO3)c2n[nH]c(=O)o2)c1C [Example 134, N-((1S,2S)-2-(6-fluoro-2,3-dimethylphenyl)-1-(5-oxo-4,5-dihydro-1,3,4-oxadiazol-2-yl)propyl)-1,4-dioxa-8-azaspiro[4.5]decane-8-sulfonamide] | 100 to 1000
19 | Cc1ccc(F)c([C@@H](C)[C@H](NS(=O)(=O)N2CCc3ccccc3C2)c2n[nH]c(=O)o2)c1C [Example 135, N-((1S,2R)-2-(6-fluoro-2,3-dimethylphenyl)-1-(5-oxo-4,5-dihydro-1,3,4-oxadiazol-2-yl)propyl)-3,4-dihydroisoquinoline-2(1H)-sulfonamide] | 100 to 1000
20 | Cc1ccc(F)c([C@H](C)[C@H](NS(=O)(=O)N2CCc3ccccc3C2)c2n[nH]c(=O)o2)c1C [Example 136, N-((1S,2S)-2-(6-fluoro-2,3-dimethylphenyl)-1-(5-oxo-4,5-dihydro-1,3,4-oxadiazol-2-yl)propyl)-3,4-dihydroisoquinoline-2(1H)-sulfonamide] | 1000 to 10000
21 | Cc1ccc(F)c(C(C)[C@H](NS(=O)(=O)N2CCC(F)(F)C2)c2n[nH]c(=O)o2)c1C (stereo partly drawn) [Example 137, 3,3-difluoro-N-((1S)-2-(6-fluoro-2,3-dimethylphenyl)-1-(5-oxo-4,5-dihydro-1,3,4-oxadiazol-2-yl)propyl)pyrrolidine-1-sulfonamide] | 10000 to 100000
22 | Cc1ccc(F)c(C(C)[C@H](NS(=O)(=O)N2CCCCC2)c2n[nH]c(=O)o2)c1C (stereo partly drawn) [Example 138, N-((1S)-2-(6-fluoro-2,3-dimethylphenyl)-1-(5-oxo-4,5-dihydro-1,3,4-oxadiazol-2-yl)propyl)piperidine-1-sulfonamide] | 100 to 1000
23 | Cc1ccc(F)c(C(C)[C@H](NS(=O)(=O)N2CCN(C)CC2)c2n[nH]c(=O)o2)c1C (stereo partly drawn) [Example 139, N-((1S)-2-(6-fluoro-2,3-dimethylphenyl)-1-(5-oxo-4,5-dihydro-1,3,4-oxadiazol-2-yl)propyl)-4-methylpiperazine-1-sulfonamide] | 100 to 1000
